The results in this text go back to patent US11903912B2, “Composition for preventing and treating breast cancer including selenopsammaplin A as active ingredients” (Seoul National University R & DB Foundation, priority 2019, dated 2024).

Structures are written as SMILES.

For test [1], the system named is EMT markers in MDA-MB-231 cells. Description: Gene expression of EMT markers, real-time PCR. Format: cell-based, human. As to conditions: MDA-MB-231, real-time PCR. The protocol: To confirm the EMT-related gene expression levels of the human breast cancer cell line MDA-MB-231, an experiment was performed as follows. To examine the EMT marker expression levels of the human breast cancer cell line MDA-MB-231, breast cancer cells were spread at a concentration of 1×10^6 cells/well on an RPMI medium containing 10% FBS in a 100 mm culture dish, cultured at 37° C. for 24 hours under a 5% CO2 condition, and then washed twice with phosphate-buffered saline (PBS). Attached cells were washed twice with PBS, the TRI reagent (TRIzol (#15596-026, Invitrogen, Grand Island, N.Y.)) was used to disrupt the cells, and then CHCl3 was added thereto to extract RNA, followed by precipitation using isopropyl alcohol. The RNA precipitate was washed with 70% ethanol, dried in air, and then […] using nuclease-free water (AM9937, Ambion, Austin, Tex.), followed by heating at 55° C. for 10 minutes and heat treatment at 70° C. for 5 minutes, so that RNA was present in a single strand state. Total RNA was quantified using NanoDrop (ND-1000, Dae Myung Science, Seoul, Korea) and diluted to 1 μg/μL, and then cDNA was produced using Avian Myeloblastosis Virus (AMV) Reverse Transcriptase (M5108, Promega, Madison, Wis.) and an oligo(dT)15 primer (C110B, Promega, Madison, Wis.). A target gene was amplified in a MiniOpticon™ Real-time PCR Detection system (CFB-3120, Bio-Rad, Hercules, Calif.) using iQTM SYBR Green Supermix (#170-8880, Bio-Rad, Hercules, Calif.) and target gene-specific primers. Real-time PCR conditions were as follows: a PCR cycle of denaturation at 95° C. for 20 seconds; denaturation at 95° C. for 20 seconds; annealing at 56° C. for 20 seconds; and elongation at 72° C. for 30 seconds, and the PCR cycle was repeated 40 times, followed by the final process at 95° C. for 1 minute and at 55° C. for 1 minute. Ct values were determined by the method according to Livak K J et al ((1996) Method 25:402-408) using MJ Opticon Monitor software (Opticon Monitor 3.1.32, Bio-Rad, Hercules, Calif.), and calibrated with the Ct value of β-actin of the sample, and the mRNA expression of EMT markers in the breast cancer cell line is illustrated in FIGS. 7A to 7D.
Background: Quantitative PCR measures a nucleic acid by following its amplification.

The subject of test [2] is H3K79me2, E-cadherin, vimentin in breast tumors. Description: Cancer metastasis markers in tumor tissues, western blot. As to conditions: tumors extracted from treated mice. Format: in vivo. The protocol: To verify that compound 2 is involved in the regulation of key factors such as H3K79me2, E-cadherin, and vimentin in vivo, the effect of compound 2 on the key factors in tumor tissues was analyzed using the following method.
The triple-negative breast cancer cell line MDA-MB-231 was spread at a concentration of 2×10^6 cells/well on a DMEM medium containing 10% FBS in a 6-well plate, cultured at 37° C. for 24 hours under a 5% CO2 condition, and then washed twice with phosphate-buffered saline (PBS). Attached cells were recovered and washed twice with PBS, and then boiling 2× sample loading buffer (250 mM Tris-HCl (pH 6.8), 4% SDS, 10% glycerol, 0.006% bromophenol blue, 2% β-mercaptoethanol, 50 mM sodium fluoride, and 5 mM sodium orthovanadate) was added thereto to disrupt the cells and the cells were left at 100° C. for 10 minutes. After cooling, the cells were stored at […] and […] at 37° C. immediately before use in protein quantification and electrophoresis. 10 μg of proteins were electrophoresed at 100 V for 2 hours using a 12% SDS-polyacrylamide gel (#456-1036, Bio-Rad, Hercules, Calif.). The separated proteins were transferred to a PVDF membrane (ISEQ15150, Millipore, Bedford, Mass.) at 100 V for 1 hour, and a blocking buffer (5% non-fat dry milk in TBS containing 0.1% Tween-20 (TBST)) was injected thereinto to culture the proteins at room temperature for 1 hour. After washing three times with TBST for 5 minutes, the corresponding single antibody was diluted with 5% non-fat dry milk in TBST and allowed to react with the membrane at 4° C. for 18 hours. The membrane [ISEQ 1S150, Millipore, Bedford, Mass.] was washed three times with TBST for 10 minutes, and then horseradish peroxidase (HRP)-conjugated secondary antibodies were diluted with 2.5% non-fat dry milk in TBST at a ratio of 1:2,000 and allowed to react with the membrane at room temperature for 2 hours. […] These were quantified using ImageJ software and are illustrated in FIG. 10B.
(A western blot detects proteins with antibodies after separation by electrophoresis.)

As to `O=C(NCC[Se][Se]CCNC(=O)/C(Cc1ccccc1)=N/O)/C(Cc1ccccc1)=N/O` [Compound 2, (2E,2′E)-N,N′-(diselenediylbis(ethane-2,1-diyl))bis(2-(hydroxyimino)-3-phenylpropanamide)], in test [1], the “mRNA expression of E-cadherin (CDH1)” value is “increased”, the “mRNA expression of N-cadherin (CDH2)” value is “suppressed”, the “mRNA expression of ZEB1” value is on record as “suppressed” and the “mRNA expression of vimentin (VIM)” value is “suppressed”. For the same compound, in test [2], the “E-cadherin in breast tumors” value was “increased in a concentration-dependent manner”, the “histone methylation (H3K79me2) in breast tumors” value is “reduced in a concentration-dependent manner” and the “vimentin in breast tumors” value is on record as “reduced in a concentration-dependent manner”.
